# “Also recorded” adds a separate entry of the source. Where two headings read alike, the source gives them in different places.
# Legend:
# [1] = test system: rat red blood cells; experiment: Hemolysis study in rat blood; assay type: cell-based; conditions: 60 min, 37° C.; for % RBC lysis (hemolytic potential): test articles 25, 50, 100 μM, amphotericin B 1, 10, 30, 100 μM
# Experimental: (§1) FIG. 6A. […] Compound I-19 in rat blood. Red blood cells were isolated from whole blood and resuspended in PBS. […] (final concentrations 25, 50, and 100 μM) and the mixtures were incubated at 37° C. for 60 min. After the incubation, the samples were centrifuged and the absorbance of 100 μL of supernatant was read at 410 nm. % RBC lysis is expressed relative to 100% lysis control. Values represent mean+SEM of n=3 separate experiments.
# as §1, with “6B.” for “6A.”, “μl” for “μL”
# FIG. 6C. Hemolytic Potential of Amphotericin B in rat blood (positive assay control). Red blood cells were isolated from whole blood and resuspended in PBS. 190 μL of diluted RBC suspension and 10 μL of amphotericin B solutions were mixed at 0 min. (final concentrations 1, 10, 30, and 100 μM) and the mixtures were incubated at 37° C. for 60 min. After the incubation, the samples were centrifuged and the absorbance of 100 μL of supernatant was read at 410 nm. % RBC lysis is expressed relative to 100% lysis control. Values represent mean+SEM of n=3 separate experiments.
# To a clear 96-well V-bottom polystyrene plate, the test articles (10 μL) and the diluted RBCs (190 μL) from human or rat blood were mixed for final concentrations of 25, 50, and 100 μM. The reaction mixture was incubated at 37° C. for 60 min. Following the exposure period, the plates were centrifuged. After centrifugation, 70 μL of supernatant (without disturbing the pellet) was transferred to a clean and clear polystyrene flat bottomed 96-well plate and the absorbance of the sample at a single wavelength was measured using a BioTech Synergy H1 Plate Reader at a wavelength of 410 nm. The positive control for this assay was amphotericin B test at concentrations of 1, 10, 30, and 100 μM.
# [2] = test system: rat gut microbiota; experiment: Stability in rat gut microbiota; conditions: rat fecal matter, 37° C., 0-120 min
# Experimental: FIG. 7A. […] Gut microbiota from rat and human sources were extracted and purified in PBS at pH 6.0 or 7.4. A stock solution of 10 mM was prepared and a 10 μL aliquot was added to extracted microorganisms at 0 min. […] Values represent mean+SEM of n=3 separate experiments.
# FIG. 7B. […] Gut microbiota from rat and human sources were extracted and purified in PBS at pH 6.0 or 7.4. A stock solution of 10 mM was prepared and a 10 μL aliquot was added to extracted microorganisms at 0 min. […] Values represent mean+SEM of n=3 separate experiments.
# Rat fecal material was obtained and weighed. One capsule of the raw probiotics was crushed and weighed prior to use. The weighed samples were then solubilized in PBS at pH 6.0 and 7.4 to extract microorganisms. The samples were centrifuged at 18,000×g for 10 min. to remove particulates and the supernatant was used to evaluate test article stability. An aliquot (50 μL) of the test article stock solutions were added to the fecal extract (final concentration 0.5 mM) and allowed to incubate at 37° C. […] The collected sample was quenched in acetonitrile/0.1% formic acid mixture.
# [3] = molecular target: T1, OAT3 (Homo sapiens, UniProt Q8TCC7); experiment: Uptake transporter inhibition assay, OAT3 (estrone-3-sulfate); conditions: for Maximum % inhibition: OAT3, HEK293 cells, E3S (1 μM), NIO: no inhibition observed
# T1 sequence (Q8TCC7 1-542): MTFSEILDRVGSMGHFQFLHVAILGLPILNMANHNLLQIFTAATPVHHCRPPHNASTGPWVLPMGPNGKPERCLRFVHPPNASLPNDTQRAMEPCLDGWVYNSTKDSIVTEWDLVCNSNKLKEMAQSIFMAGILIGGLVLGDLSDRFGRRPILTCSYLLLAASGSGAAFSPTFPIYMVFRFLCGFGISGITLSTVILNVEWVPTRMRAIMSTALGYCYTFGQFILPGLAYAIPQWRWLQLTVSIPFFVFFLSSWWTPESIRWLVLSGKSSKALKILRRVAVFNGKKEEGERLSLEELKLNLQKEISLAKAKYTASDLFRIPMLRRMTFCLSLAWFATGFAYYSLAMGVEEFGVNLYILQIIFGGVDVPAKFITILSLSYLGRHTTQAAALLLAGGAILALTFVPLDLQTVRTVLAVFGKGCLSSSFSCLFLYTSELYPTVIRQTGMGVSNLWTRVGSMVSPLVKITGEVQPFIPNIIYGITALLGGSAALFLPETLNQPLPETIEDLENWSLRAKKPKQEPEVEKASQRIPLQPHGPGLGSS
# Experimental: Uptake experiments were performed using HEK293 cells stably expressing the respective uptake transporters. The assays were conducted according to the actual SOLVO uptake transporter assay protocols (PR-ASY-UPT-General Protocol for Uptake Transporter Inhibition Assays).
# Cells were cultured at 37° C. in a humidified atmosphere containing 5% CO2 and were plated onto standard 96-well tissue culture plates.
# Before the experiment, the medium was removed, and the cells were washed twice with 100 μL of pre-warmed (37° C.) assay buffer listed in Table 15. The cells were pre-incubated at 37° C. for 30 minutes in assay buffer containing the test article at appropriate concentrations (Table 16), appropriate solvents for solvent controls and the reference inhibitor for reference inhibitor wells. After the pre-incubation step solutions were removed. Uptake experiments were performed at 37° C. in 50 μL of assay buffer containing the probe substrate and the test article or solvent and controls.
# After the experiment, cells were washed twice with 100 μL of appropriate cold buffer and lysed with 150 μL scintillation cocktail. Radiolabeled probe substrate transport was determined by liquid scintillation counting.
# Uptake of the probe substrate in control cells provided background activity values for all data points.
# [4] = HBSS (pH 7.4) for OAT1, OAT3, OATP1B1, OATP1B3, OCT1, OCT2 uptake inhibition assay, 37° C., 6.25 μM nominal
# [5] = HBSS (pH 7.4) for OAT1, OAT3, OATP1B1, OATP1B3, OCT1, OCT2 uptake inhibition assay, 37° C., 50.00 μM nominal
# [6] = HBSS (pH 7.4) for OAT1, OAT3, OATP1B1, OATP1B3, OCT1, OCT2 uptake inhibition assay, 37° C., 100.00 μM nominal
# [7] = KH (pH 8.0) for MATE1, MATE2-K uptake inhibition assay, 37° C., 6.25 μM nominal
# [8] = KH (pH 8.0) for MATE1, MATE2-K uptake inhibition assay, 37° C., 50.00 μM nominal
# [9] = KH (pH 8.0) for MATE1, MATE2-K uptake inhibition assay, 37° C., 100.00 μM nominal
# [10] = Transport buffer (pH 7.4) for BSEP VT inhibition assay, 37° C., 6.25 μM nominal
# [11] = Transport buffer (pH 7.4) for BSEP VT inhibition assay, 37° C., 50.00 μM nominal
# [12] = Transport buffer (pH 7.4) for BSEP VT inhibition assay, 37° C., 100.00 μM nominal
# [13] = Transport buffer with sucrose (pH 7.4) for BCRP and MDR1 VT inhibition assay, 32° C., 6.25 μM nominal
# [14] = Transport buffer with sucrose (pH 7.4) for BCRP and MDR1 VT inhibition assay, 32° C., 50.00 μM nominal
# [15] = Transport buffer with sucrose (pH 7.4) for BCRP and MDR1 VT inhibition assay, 32° C., 100.00 μM nominal
# [16] = 10.00 μM nominal, 6.60 μM NSB corrected
# [17] = 100.00 μM nominal, 77.00 μM NSB corrected
SMILES,EC50 (% RBC lysis) [1],% RBC lysis (hemolytic potential) [1],"% parent compound remaining ([2]; pH 6, 0.5 mM)","% parent compound remaining ([2]; pH 7.4, 0.5 mM)",Maximum % inhibition [3],Microscopy results (solubility) [4],Microscopy results (solubility) [5],Microscopy results (solubility) [6],Microscopy results (solubility) [7],Microscopy results (solubility) [8],Microscopy results (solubility) [9],Microscopy results (solubility) [10],Microscopy results (solubility) [11],Microscopy results (solubility) [12],Microscopy results (solubility) [13],Microscopy results (solubility) [14],Microscopy results (solubility) [15],other results
COCCOC1(c2ccc(Cl)cc2)c2ccccc2C2=NCCN21 (stereo not drawn) [Compound I-4],outside the concentration range tested,no detectable hemolysis,≥ 100%,≥ 100%,,,,,,,,,,,,,,
"OC1(c2ccc(Cl)cc2)c2ccccc2C2=NCCN21 (stereo not drawn) [Compound A, 5-(4-chlorophenyl)-2,3-dihydroimidazo[1,2-b]isoindol-5-ol, reference compound]",,,,,NIO,Soluble,Insoluble,Insoluble,Soluble,Insoluble,Insoluble,Soluble,Insoluble,Insoluble,Soluble,Soluble,Insoluble,"Relative transporter specific accumulation ([3]; 3.00 μM nominal): 97.60 ± 4.33 % of control; Transporter specific accumulation ([3]; 3.00 μM nominal): 3,883.00 ± 158.50 cpm; Relative transporter specific accumulation ([3]; 30.00 μM nominal): 89.65 ± 3.21 % of control; Transporter specific accumulation ([3]; 30.00 μM nominal): 3,566.67 ± 111.53 cpm; inhibition at 3 μM ([3]; human, Relative inhibition, 3.00 μM nominal): 2%; inhibition at 30 μM ([3]; human, Relative inhibition, 30.00 μM nominal): 10%; maximum inhibition of OAT3-mediated E3S accumulation ([3]; up to 100 μM (Compound A up to 30 μM)): did not inhibit; also recorded: not an in vitro inhibitor; Microscopy results (solubility) (HBSS (pH 7.4) for OAT1, OAT3, OATP1B1, OATP1B3, OCT1, OCT2 uptake inhibition assay, 37° C., 30.00 μM nominal): Soluble; Microscopy results (solubility) (HBSS (pH 7.4) for OAT1, OAT3, OATP1B1, OATP1B3, OCT1, OCT2 uptake inhibition assay, 37° C., 40.00 μM nominal): Insoluble; Microscopy results (solubility) (KH (pH 8.0) for MATE1, MATE2-K uptake inhibition assay, 37° C., 30.00 μM nominal): Soluble; Microscopy results (solubility) (KH (pH 8.0) for MATE1, MATE2-K uptake inhibition assay, 37° C., 40.00 μM nominal): Insoluble; Microscopy results (solubility) (Transport buffer (pH 7.4) for BSEP VT inhibition assay, 37° C., 30.00 μM nominal): Soluble; Microscopy results (solubility) (Transport buffer (pH 7.4) for BSEP VT inhibition assay, 37° C., 40.00 μM nominal): Insoluble; Microscopy results (solubility) (Transport buffer with sucrose (pH 7.4) for BCRP and MDR1 VT inhibition assay, 32° C., 60.00 μM nominal): Insoluble; Microscopy results (solubility) (Transport buffer with sucrose (pH 7.4) for BCRP and MDR1 VT inhibition assay, 32° C., 70.00 μM nominal): Insoluble; Microscopy results (solubility) (Transport buffer with sucrose (pH 7.4) for BCRP and MDR1 VT inhibition assay, 32° C., 80.00 μM nominal): Insoluble; Microscopy results (solubility) (Transport buffer with sucrose (pH 7.4) for BCRP and MDR1 VT inhibition assay, 32° C., 90.00 μM nominal): Insoluble"
Clc1ccc(C2(OCC3OCCO3)c3ccccc3C3=NCCN32)cc1 (stereo not drawn) [Compound I-19],outside the concentration range tested,no detectable hemolysis,at or above 100% for all time points except 120 min,time-dependent decrease in the amount of parent compound present; also recorded: unstable,42%,Soluble,Soluble,Soluble,Soluble,Soluble,Soluble,Soluble,Soluble,Soluble,Soluble,Soluble,Soluble,"Relative inhibition [3, 16]: 5%; Relative transporter specific accumulation [3, 16]: 95.18 ± 1.71 % of control; Transporter specific accumulation [3, 16]: 10,323.00 ± 126.84 cpm; Relative inhibition [3, 17]: 42%; Relative transporter specific accumulation [3, 17]: 57.83 ± 0.99 % of control; Transporter specific accumulation [3, 17]: 6,272.33 ± 68.97 cpm; Kinetic solubility (HBSS (pH 7.4) uptake assay buffer): ≥ 100 µM; Kinetic solubility (KH (pH 8.0) uptake assay buffer): ≥ 100 µM; Microscopy results (solubility) (pH 7.4): Soluble; Microscopy results (solubility) (pH 8): Soluble; Kinetic solubility (transport buffer for BSEP (pH 7.4)): ≥ 100 µM; Kinetic solubility (transport buffer with sucrose for BCRP and MDR1 (pH 7.4, 32° C.)): ≥ 100 µM"

# — patent publication US20250108038A1 (priority 2023, published 2025)
